Experimental data as given in patent US8901157B2, “Compositions and methods of use of ritonavir for treating HCV” (AbbVie Inc., priority 2006, dated 2014).
Read-outs that look alike come from different tables or passages of the source.

Experiments:
[1] = Pharmacokinetics of SCH 503034 in rats, with or without coadministered ritonavir; assay type: in vivo, Sprague-Dawley derived rats; details: rat; for half-life: mean; for Cmax: po, 5 mg/kg; for C8 h: plasma at 8 h
in vitro [2] = assay type: in vitro ADME; details: human, pH 7.4, human liver microsomes, read-out: Percent Inhibition of Metabolism by Ritonavir
Experimental: (§1) Liquid handling was carried out on a Tecan EVO robotic system. Triplicate incubations were carried out at a final test compound concentration of 1 μM with 0.5 mg/ml microsomal protein, and 1 mM NADPH. Pooled human liver microsomes (1 mg/ml protein) and NADPH cofactor (2 mM) were prepared in 50 mM phosphate buffer at pH 7.4. Stock solutions (10 mM) of VX-950 or SCH 503034 were prepared in DMSO and then diluted to 100 μM in 1:1 acetonitrile/water. The solutions of compounds were added into the NADPH cofactor solution containing 0, 0.8 or 8 μM of ritonavir in a 2 ml 96-well plate. The resulting solution was added to the microsomes (1:1) that had been pre-incubated for 10 minutes at 37° C. Samples (0.1 ml) were incubated in 96-well plates at 37° C. for 0, 10, 20 and 30 min in a Tecan 4-slot incubator. At each time point, the robotic arm removed one of the replicate plates and the reactions were stopped by adding 1 volume (100 μl) of acetonitrile with internal standard (0.05 μM buspirone) to each well. All plates were centrifuged at 3500 rpm for 30 min, and the supernatant was transferred to a 96-well injection plate. The plates were stored at 4° C. until analyzed.
(§2) LC-MS/MS analysis: The samples were analyzed in positive mode using the turbospray ion source of PE/Sciex API 4000 Q-Trap mass spectrometer with Shimadzu HPLC system. Samples were injected (5 μL) onto a Lancer C18 column (5 μm, 30×2.1 mm) from Analytical Sales and Services Inc. (Pompton Plains, N.J.) and separation occurred via a gradient: The flow rate was 0.5 mL/min; starting conditions of 7.5% B, 2.5% C, increasing to 30% B and 10% C at 0.4 min. […] Mobile phase A was 95/5 water/methanol (v/v) with 10 mM ammonium acetate and 60 μL/L acetic acid. Mobile phase B was methanol containing 10 mM ammonium acetate and 60 μL/L acetic acid. Mobile phase C was acetonitrile.
Using the above conditions, the presence of ritonavir inhibited the metabolism of VX-950 and SCH 503034 in the following manner:
Metabolism of VX-950 and SCH 503034 in Human Liver Microsomes in the Absence or Presence of Ritonavir

in vitro [3] = assay type: in vitro ADME; details: rat, pH 7.4, rat liver microsomes, read-out: Percent Inhibition of Metabolism by Ritonavir
Experimental: as §1, §2
Using the procedure of Example 1, but substituting rat liver microsomes for human liver microsomes, the presence of ritonavir inhibited the metabolism of VX-950 and SCH 503034 in the following manner: […]

[4] = Sprague-Dawley, rat, in vivo, 5 mg/kg
Experimental: (§3) The 1 mL/kg intravenous dose was administered as a slow bolus (˜1 minutes) in a jugular vein of the rats under isoflurane anesthetic; the 1 ml/kg oral dose (±ritonavir) was administered by gavage. Serial blood samples were obtained from a tail vein of each animal 0.1 (IV only), 0.25, 0.5, 1, 1.5, 2, 3, 4, 6 and 8 hours after dosing. The heparinized samples were placed on ice immediately following collection. Plasma was separated by centrifugation and stored frozen for subsequent analysis.
(§4) Concentrations of parent drug (and ritonavir) were determined by HPLC-MS/MS following liquid-liquid extraction of the plasma samples. Analysis was performed on a Sciex API 2000™ Biomolecular Mass Analyzer using Turbo Ion Spray. Peak areas of the title compounds and internal standards were determined using the Sciex MacQuan™ software. Calibration curves were derived from peak area ratio (parent drug/internal standard) of the spiked plasma standards using least squares linear regression of the ratio versus the theoretical concentration. The maximum plasma concentration (Cmax) and the time to reach the maximum plasma concentration (Tmax) were read directly from the observed plasma concentration-time data. The plasma concentration data were submitted to multi-exponential curve fitting using WinNonlin. The area under the plasma concentration-time curve from 0 to t hours (last measurable plasma concentration time point) after dosing (AUC0-t) was calculated using the linear trapezoidal rule for the plasma-time profiles. The residual area extrapolated to infinity, determined as the final measured plasma concentration (Ct) divided by the terminal elimination rate constant (β), was added to AUC0-t to produce the total area under the curve (AUC0-∞). The apparent total plasma clearance (CLp) was calculated by dividing the administered dose by the AUC0-∞. The volume of distribution, Vc, was estimated by dividing the dose by the extrapolated plasma concentration at time zero (C0). The volume of distribution at steady state, Vss, was estimated as a product of the plasma clearance (CLp) and the mean residence time (MRT); the terminal-phase volume of distribution, Vβ, was derived from the plasma clearance value (CLp) divided by the plasma elimination rate constant (β). The bioavailability was calculated as the dose-normalized AUC0-∞ from the oral dose divided by the corresponding value derived from an intravenous dose.

in vivo = details: Sprague-Dawley, rat, 5 mg/kg
Experimental: as §3, §4

[5] = Pharmacokinetics of VX-950 in rats, with or without coadministered ritonavir; details: rat; for half-life: Sprague-Dawley, plasma, 5 mg/kg
Experimental: as §3, §4

[6] = Sprague-Dawley, plasma, PO 5 mg/kg, no ritonavir, mean (SEM), n=3
[7] = PO 5 mg/kg, no ritonavir, mean (SEM), n=3

For `CC(C)(C)NC(=O)N[C@H](C(=O)N1C[C@H]2[C@@H]([C@H]1C(=O)NC(CC1CCC1)C(=O)C(N)=O)C2(C)C)C(C)(C)C` (some centres unmarked) [SCH 503034, 3-[2-(3-tert-butyl-ureido)-3,3-diemthyl-butyryl]-6,6-dimethyl-3-aza-bicyclo[3.1.0]hexane-2-carboxylic acid (2-carbamoyl-1-cyclobutylmethyl-2-oxo-ethyl)-amide], the AUC ([1]; Sprague-Dawley, plasma, IV 5 mg/kg, mean (SEM), n=3) was 3.12 µg·h/mL, the clearance ([1]; Sprague-Dawley, plasma, IV 5 mg/kg, mean (SEM), n=3, read-out: CLp (converted)) was 2.04 L/h/kg and the Vd ([1]; Sprague-Dawley, plasma, IV 5 mg/kg, mean (SEM), n=3, read-out: Vss) was 0.53 L/kg. The half-life ([1]; Sprague-Dawley, plasma, IV 5 mg/kg, n=3) was 0.3 h, the AUC [1, 6] was 0.11 µg·h/mL and the AUC(0-t) ([1]; Sprague-Dawley, plasma, PO+ = 5 mg/kg oral SCH 503034 + 5 mg/kg oral ritonavir, mean (SEM), n=3, read-out: AUC (0-8 hr AUC)) was 2.18 µg·h/mL. For the same molecule, the half-life ([1]; Sprague-Dawley, plasma, PO+ = 5 mg/kg oral SCH 503034 + 5 mg/kg oral ritonavir, n=3) was 2.5 h, the Cmax [1, 6] was 0.07 µg/mL and the Cmax ([1]; Sprague-Dawley, plasma, PO+ = 5 mg/kg oral SCH 503034 + 5 mg/kg oral ritonavir, mean (SEM), n=3) was 0.52 µg/mL. For the same molecule, the “plasma levels on coadministering with ritonavir” value ([1]; 5 mg/kg oral SCH 503034 + 5 mg/kg oral ritonavir vs SCH 503034 alone, FIG. 3) was “substantially elevated”, the Vβ ([1]; IV 5 mg/kg, mean (SEM), n=3) was 0.92 (0.29) L/kg and the F [1, 7] was 3.5 (1.5) %. The C8 h ([1]; PO 5 mg/kg, no ritonavir) was under 0.001, the F ([1]; PO+ = 5 mg/kg oral SCH 503034 + 5 mg/kg oral ritonavir, mean (SEM), n=3) was 70.1 (7.0) % and the C8 h ([1]; PO+ = 5 mg/kg oral SCH 503034 + 5 mg/kg oral ritonavir) was 0.076.
`CCC[C@H](NC(=O)[C@@H]1[C@H]2CCC[C@H]2CN1C(=O)[C@@H](NC(=O)[C@@H](NC(=O)c1cnccn1)C1CCCCC1)C(C)(C)C)C(=O)C(=O)NC1CC1` [VX-950, 2-(2-{2-cyclohexyl-2[(pyrazine-2-carbonyl)-amino]-acetylamino}-3,3-dimethyl-butyryl)-octahydro-cyclopenta[c]pyrrole-1-carboxylic acid(1-cyclopropylaminooxalyl-butyl)-amide] gave an inhibition at 1 μM (in vitro [2]; ritonavir 0 micromolar) of 0%, an inhibition at 1 μM (in vitro [2]; ritonavir 0.4 micromolar) of 72% and an inhibition at 1 μM (in vitro [2]; ritonavir 4.0 micromolar) of 100%. The inhibition at 30 min, 1 μM (in vitro [3]; ritonavir 0 micromolar) was 0%, the inhibition at 30 min, 1 μM (in vitro [3]; ritonavir 0.4 micromolar) was 61% and the inhibition at 30 min, 1 μM (in vitro [3]; ritonavir 4.0 micromolar) was 100%. For the same molecule, the Vβ ([4]; iv) was 8.1 (2.6) L/kg, the F ([4]; po) was 34.8 (11.0) % and the C8 h ([4]; po, 8 h) was 0.018. It also gave an AUC (in vivo; iv) of 3.03 µg·h/mL, a Vd (in vivo; iv) of 2.4 L/kg and a clearance (in vivo; iv) of 1.7 L/h/kg. The AUC (in vivo; po) was 1.05 µg·h/mL, the Tmax (in vivo; po, Tmax) was 1.1 h and the half-life ([5]; iv) was 2.8 h. For the same molecule, the half-life ([5]; po) was 1.7 h and the Cmax [5, 7] was 0.43 (0.15) μg/ml.
